row,melting point [°C],SMILES
1,178 to 180,Cc1cc(OCc2ccccc2)c2cc(C(=O)O)[nH]c2c1
2,40 to 41,CC(OC(=O)N(C(C)C)C(C)C)c1ccccc1[N+](=O)[O-] (stereo unspecified)
3,171 to 174,Nc1ccc(Oc2cccc(Oc3ccc(N)c(O)c3)c2)cc1O
4,156 to 158,CCC(CC)c1ccc(Cl)c2nc3n(c12)CCCCN3c1cccc2c1OC(F)(F)O2
5,203 to 204,CNS(=O)(=O)c1ccc(-c2coc3ccc(-c4nnc(C)o4)cc23)cc1
6,226 to 228,CN(C)C(=O)c1cnn(-c2c(Cl)cc(Cl)cc2Cl)c1N
7,56 to 58,CCCCCCCCCC(O)Cc1ccc(O)c(O)c1 (stereo unspecified)
8,233 to 235,COc1ncccc1Nc1c(NC(NC(=O)c2cccc(C)c2)C(C)(C)Cc2ccccc2)c(=O)c1=O (stereo unspecified)
9,123 to 125,CC1(C)Nc2cc(F)c(F)cc2-n2cccc21
10,140 to 141,CCS(=O)(=O)c1cc2c(c(C(=O)NCC3CCCN3C)c1)OCCO2 (stereo unspecified)
11,65 to 66,CCOC(=O)/C(=C\Nc1cc(OC)ccc1OC)c1ccc(OC)cc1
12,160 to 161,CCOC(=O)[C@@H](O)[C@@H](NC(=O)c1ccccc1)c1ccccc1
13,160 to 162,Cc1ccc(NC(=O)N2CCN(CCc3ccc(-c4cccc(N)n4)cc3)CC2)cc1
14,109,Cc1c(-c2ccccc2)nn(N)c1OCCN1CCCC1
15,56 to 58,COC=C1CN(C(c2ccccc2)c2ccccc2)C1
16,226 to 228,Cc1cccc(-c2nc(N)sc2-c2ccnc(-c3ccc(OCc4cn(C)cn4)cc3)c2)n1
17,114 to 116,Cc1cccc(N2CCN(CCCCc3ccc(C4CCC(=O)N4)cc3)CC2)c1 (stereo unspecified)
18,170,CCN(CC)C(=O)c1cc2c(cn1)[nH]c1ccccc12
19,135 to 136,COC(=O)c1ccc2scc(-c3ccc(SC)cc3)c2c1
20,> 280,CC1COc2c(C3CC3)c(F)c(N)c3c(=O)c(C(=O)O)cn1c23 (stereo unspecified)
21,115 to 117,COC(=O)c1ccc(CN(CC2CCOCC2)S(=O)(=O)c2ccc(Cl)cc2)cc1
22,115 to 118,Cc1cc(SCN(O)CSc2cc(C)c(O)c(C(C)(C)C)c2)cc(C(C)(C)C)c1O
23,150,COC(=O)[C@@H](Cc1ccccc1)Nc1cc(-c2ccc(OCc3ccccc3)cc2)ncn1
24,170,O=CN[C@H]1CC[C@H](CCN2CCN(c3nccc4c3CCO4)CC2)CC1

row,melting point [°C],SMILES
1,219 to 221,COc1cc2occ(C(=O)Nc3cccnc3)c2cc1C(F)(F)F
2,68 to 69,ClC12CCCC(C1)C1CCC2C1 (stereo unspecified)
3,123 to 124,CCOCCc1nnc(S)n1N
4,235 to 238,N#Cc1cccc(-c2cc(-c3ccc(C#N)cc3[N+](=O)[O-])no2)c1
5,181 to 182,CC(NC(Nc1cc(C(F)(F)F)cc(C(F)(F)F)c1)=C(C#N)S(C)(=O)=O)C(C)(C)C (stereo unspecified)
6,160 to 161,CN(C)C=NS(=O)(=O)c1cc(CCNC(=O)C(F)(F)F)ccc1O
7,210,O=C1CCC(c2ccccc2)(c2ccccc2)[C@@H]2CN(C(=O)Cc3ccc(F)cc3)C[C@H]12 (racemic)
8,376,CC(C)(C)c1ccc(-c2ccc3c(-c4ccc(C(C)(C)C)cc4)cc4c5cc(-c6ccc(C(C)(C)C)cc6)ccc5c(-c5ccc(C(C)(C)C)cc5)cc4c3c2)cc1
9,200 to 203,Cc1ccc(C(=O)n2c3c(c4cc(C)ccc42)CC(C(=O)O)CC3)cc1 (stereo unspecified)
10,75 to 78,O=C1CCc2c1cccc2-c1ccc(C(F)(F)F)cc1
11,181 to 182,CCCOc1ccc(/C=C/C(=O)OC(C)(C)C)cc1-c1nc2c(c(C)nn2CCC)c(=O)[nH]1
12,132 to 133,COc1ccc(C2=NN(Cc3ccccc3O)C(=O)[C@H]3CCCC[C@@H]23)cc1OC (relative stereo)
13,224 to 225,O=C(O)CCc1cccc(-c2nc(=O)c3ccc(Cl)cc3s2)n1
14,60 to 76,Cc1ccccc1C=CCC(C(=O)C=Cc1ccc(Cl)cc1)c1ccccc1 (stereo unspecified)
15,236 to 239,Cc1c(N2CCN(C=O)C(C)C2)c(F)cc2c(=O)c(C(=O)O)cn(C3CC3)c12 (stereo unspecified)
16,240 to 242,O=C(O)Cn1c(-c2cccc(C(F)(F)F)c2)nc2cccnc21
17,150 to 152,CCOc1nc(NCc2ccco2)nc(Nc2ccc3nc(C)[nH]c3c2)n1
18,161 to 163,O=C(O)Cc1c(Cl)nc(-c2ccccc2)n1Cc1ccccc1
19,99,CCSc1ccc2c(c1)C(Cl)Cc1ccc(F)cc1S2 (stereo unspecified)
20,212 to 215,CC(=O)C1CCC2C3CCC4CC(O)C(N5CC(C)(C)OC(C)(C)C5)CC4(C)C3C(=O)CC12C (stereo unspecified)
21,105 to 108,O=C(NCCCn1ccnc1)Nc1cccc(C(F)(F)F)c1
22,168,CON=C(c1ccc(OC(C)(C)C(=O)O)cc1)c1cccs1
23,205 to 207,CC(C)(N)CNc1ncc2ncnc(Nc3ccc(F)c(Cl)c3)c2n1
24,142,COc1ccc(-c2nc(N)ncc2-c2ccc(=O)[nH]n2)cc1

row,melting point [°C],SMILES
1,166,Cc1ccc(C(=O)S[C@@H](C)C(=O)N2CSC[C@H]2C(=O)O)cc1
2,145 to 147,CCCCc1nc2cccc(C(=O)OCCO)c2n1Cc1ccc(-c2ccccc2-c2nnn[nH]2)cc1
3,202 to 203,N#CN=C(Nc1cccnc1)NC(CC12CC3CC(CC(C3)C1)C2)NC(=O)c1ccc(Cl)cc1 (stereo unspecified)
4,121,O=C(CNc1ccc(Cl)cc1)NCCc1ccc(OCc2ccccc2)c(OCc2ccccc2)c1
5,142 to 146,CC(=O)OC1CC2CCC3C(CCC4(C)C(C(C)=O)CCC34)C2(C)CC1Br (stereo unspecified)
6,171 to 175,O=C(O)c1ccc(NC(=O)c2ccc(Cl)cc2Cl)cc1Cl
7,138,Nc1ccc2c(c1)C(=O)N(CCO)CCO2
8,> 300,O=c1[nH]c(-c2csc3ccccc23)nc2ccc(N3CCCCC3)cc12
9,108 to 110,CN(C(=S)c1ccc([N+](=O)[O-])cc1)C1CCN(C2CCCCC2)C1 (stereo unspecified)
10,192 to 195,Cn1c(CC(=O)O)ccc1C(=O)c1ccc([N+](=O)[O-])cc1
11,218 to 219,CN1CCN(c2cc(NC(=O)c3ccc(-c4ccncc4)cc3)ccc2Cl)CC1
12,128 to 130,CCCCCCCCOc1ccc(-c2ncc(O)cc2Cl)cc1
13,138 to 140,C=C(C)C(=O)OCCNc1nc(Cl)nc(Cl)n1
14,30 to 33,CCCCc1ccc(N)nc1
15,97 to 101,COC(=O)C(Cl)C(C)=NNS(=O)(=O)c1ccc(C)cc1 (stereo unspecified)
16,154 to 155,OCCOCn1cc(I)c2c(Cl)ncnc21
17,112 to 113,CNS(=O)(=O)c1cc(C)oc1CC(=O)O
18,228 to 229,CS(=O)(=O)c1ccc(-c2nn3c(-c4ccccc4)c(-c4ccccc4)oc3c2-c2ccc(F)cc2)cc1
19,120 to 121,CCOP(=O)(CC1(O)CC=Cc2ccccc21)OCC (stereo unspecified)
20,70.5 to 71.5,COC(=O)N(C)c1cc(C(C)(C)C)no1
21,168 to 172,O=C(c1ccc(F)cc1)N1CCC[C@H](c2noc([C@@H](O)c3ccccc3)n2)C1
22,161 to 163,Cc1cnc(CNC(=O)c2sc(N3CCN(CC4CC4)C3=O)nc2C)cn1
23,149 to 150,COCCCNS(=O)(=O)NC(=O)OCc1ccc(OCCOC)cc1Oc1ncc(C(F)(F)F)cc1Cl
24,82 to 83,CC(C)C1C(=O)N(CSc2ccccc2)S(=O)(=O)N1C (stereo unspecified)

row,melting point [°C],SMILES
1,125 to 126,COC1=C(OC)C(=O)c2cc(Sc3ccccc3Cl)ccc2C1=O
2,116 to 118,CC(C)(CO)NC(=S)NC(=O)c1ccccc1
3,89 to 91,"CC(C)C(=O)NCCNCC(O)COc1ccccc1 (single isomer, unassigned; (-))"
4,184 to 186,O=C(/C=C/c1ccc(CN2CCCC2)cc1)Nc1ccc(Br)cc1
5,211 to 212,O=C(Nc1ccc(C(=O)N2Cc3cccn3Cc3ccccc32)cc1)c1cccnc1Oc1ccc(Cl)cc1
6,226 to 229,O=C(NC(=O)c1c(F)cccc1F)Nc1ccc(Cl)cn1
7,245 to 247,NC(=O)[C@H](CO)NC(=O)c1cccc(NS(=O)(=O)CC2CN(C(c3ccc(Cl)cc3)c3ccc(Cl)cc3)C2)c1
8,133 to 135,CN(C)CCOc1ccc2c(c1)C(c1ccccc1)CC(=O)N2 (stereo unspecified)
9,192 to 193,NC(=O)c1ccc(NC2CCN(Cc3ccccc3)CC2)cc1
10,173 to 182,S=C(NCCc1ccc(Cl)cc1)Nc1nc2ccccc2[nH]1
11,47 to 49,CCOC(=O)C(C=C(C)CP(=O)(OCCCl)OCCCl)NC=O (stereo unspecified)
12,86 to 88,Cc1ccc(Nc2cccc(O)c2)cc1
13,139 to 140,Cc1noc(C)c1NCC#CI
14,146,COc1ccc(Nc2nc(Cl)nc(NC3CCCCCC3)n2)cc1Cl
15,121,Cc1cc(C)cc(N2C(=O)NC(C)(C3CC3)C2=O)c1 (stereo unspecified)
16,120,O=c1nc(C2CC2)sc2ccccc12
17,114 to 115,COC(=O)C=Cc1ccc(Cl)c(Cl)c1
18,289 to 290,O=C(O)c1cc(-c2ccc(C(F)(F)F)cc2)nc(-c2ccc(C(F)(F)F)cc2)c1
19,126 to 128,NC(=O)CCCSCc1nccc(NC(N)=NCC(F)(F)F)n1
20,169 to 174,CNC(=O)c1ccccc1Nc1nc(Nc2ccc3c(n2)CCCCS3)ncc1Cl
21,> 220,Cc1cc(=O)n(-c2ccc(Cl)cc2F)c(=O)[nH]1
22,142 to 144,Nc1ccccc1C(=O)Nc1ccc(Br)c(C(F)(F)F)c1
23,191 to 192,COc1ccc(C(=O)Nc2ccccc2NC(=O)c2ccc(OC)c(OC)c2)cc1OC

row,SMILES,melting point [°C]
1,COC(=O)c1cnc(SC)n1C(c1ccccc1)c1ccccc1,118
2,c1ccc2c(c1)cc1n2CC2(CCNC2)C1 (stereo unspecified),90 to 92
3,CN1C(=O)C2CCCN2Cc2ccccc21 (stereo unspecified),120 to 122
4,Cc1ccccc1-n1c(C=Cc2ccccn2)nc2ccsc2c1=O,203
5,CC(=O)OC1CCC2(C)C(=CCC3C4CCC(=O)C4(C)CC(OC(C)=O)C32)C1 (stereo unspecified),177 to 179
6,CC12CCC(=O)C(CSc3ccccc3)=C1CCC1C2CCC2(C)C1CCC2(C)O (stereo unspecified),123 to 130

# From a melting point compilation (Tetko et al.; mined from patent text by program, amines drawn as free bases though some values may be those of a salt)
